{
  "source": "patent US11813304B2",
  "about": "“Compounds and methods for inhibiting phosphate transport” (Ardelyx, Inc., priority 2013, dated 2023)",
  "tested_on": "HEK-293 cells",
  "test": "Sodium-dependent 33P phosphate uptake in HEK-293 cells (mock, rat or human NaP2b transfected)",
  "format": "cell-based",
  "conditions": "5 μM EIPA; cells not pretreated to lower their intracellular pH; 23 min at room temperature",
  "protocol": "Experiments were performed to test the relationship between alterations in intracellular pH and the uptake of phosphate ions (Pi) in human embryonic kidney cells (HEK-293 cells).\nHEK-293 cells were seeded into 96-well plates at 25,000 cells/well and cultured overnight. Cells were then transfected with either rat or human NaP2b cDNA, or were mock transfected (no DNA) using Lipofectamine 2000 (Invitrogen). Cells were allowed to approach confluence during a second overnight incubation.\nAn ammonium pulse procedure was used to reduce the intracellular pH from ˜7.4 to ˜6.8. Medium was aspirated from the wells, cells were washed twice with NaCl-HEPES buffer (100 mM NaCl, 50 mM HEPES, 10 mM glucose, 5 mM KCl, 2 mM CaCl2, 1 mM MgCl2, pH 7.4), then incubated for 30 min at room temperature with NH4Cl-HEPES buffer (20 mM NH4Cl, 80 mM NaCl, 50 mM HEPES, 5 mM KCl, 2 mM CaCl2, 1 mM MgCl2, pH 7.4) containing 5 μM BCECF-AM. […] The reduction in intracellular pH to approximately pH 6.8 was verified by monitoring the pH sensitive changes in BCECF fluorescence (λex 505 nm, λem 538 nm) normalized to the pH insensitive BCECF fluorescence (λex 439 nm, λem 538 nm). […]\nUptake of ^33P was measured in the presence and absence of 5 μM EIPA, a specific inhibitor of NHE1. […] Cells were lysed by addition of 20 μL 0.1% Tween 80 followed by 100 μL scintillation fluid, and counted using a TopCount (Perkin Elmer).",
  "data": [
    {"smiles": "CCN(c1nc(N)c(C(=O)NC(=N)N)nc1Cl)C(C)C", "note": "[EIPA]", "values": [
      {"measurement": "Pi uptake (33P)", "value": "small yet significant decrease"}
    ]}
  ]
}
